From patent US20240034724A1, “THERAPEUTIC COMPOUNDS USEFUL FOR THE PROPHYLACTIC OR THERAPEUTIC TREATMENT OF AN HIV VIRUS INFECTION” (Gilead Sciences, Inc., priority 2022, published 2024) come the findings set out here.

Molecules are shown by their SMILES.

For one data set, the system named is HIV-1 (IIIb strain). Nature of the data set: Test A: Antiviral Assay in the Human MT-4 T-Lymphoblastoid Cell Line. It is filed as cell-based. The conditions noted are these: Human immunodeficiency virus 1, MT4, 120 h; MT-4 cells infected with HIV-1 IIIb, 5 days, CellTiter-Glo, protection from virus-induced cell death. As for the experimental part: Test A: Antiviral Assay in the Human MT-4 T-Lymphoblastoid Cell Line
(§1) For the MT-4 antiviral assay, 50 μL of 3-fold serially diluted compound in complete RPMI medium was added to each well of a 384-well plate (10 concentrations) in quadruplicate. MT-4 cells were infected with HIV-1 (IIIb strain) at a multiplicity of infection (m.o.i.) of ˜0.005 for 1 hour at 37° C. and 20 μL of virus/cell mixture (˜2,000 cells) was added to each well of the assay plate containing 50 μL of diluted compound. A positive control (1 μM azidothymidine, AZT) and a negative control (dimethyl sulfoxide, DMSO) were included in every assay plate to define 100% and 0% protection, respectively. The final DMSO concentration in the assay was 0.5%. The plates were then incubated at 37° C. for 5 days. At the end of the incubation, 30 μL of CellTiter-Glo reagent (Promega Madison, WI) was added to each well of the assay plates. Cell lysis was carried out by incubating the assay plates at room temperature for 10 minutes followed by the quantification of chemiluminescence signal using an EnVision plate reader (Perkin Elmer, Shelton, CT). Antiviral dose response data were normalized to positive and negative controls in each plate and analyzed by curve fitting after conversion of the data to % cell death to determine the half-maximal effective concentration (EC50) value, defined as the compound concentration that caused a 50% protection from cytopathic effect (CPE)-dependent virus-induced cell death.
For orientation: Cellular ATP, detected with luciferase, serves as a proxy for viable cell number.

Data set [1] can be described thus: Test B: Cytotoxicity Assay in MT-4 Cells. The class given is cell-based. The conditions noted are these: human, uninfected MT-4 cells, CellTiter-Glo. As for the experimental part:
as §1, with “death. Test B: Cytotoxicity Assay in MT-4 Cells Compound cytotoxicity and the corresponding half-maximal cytotoxicity concentration (CC50) values was determined using the same protocol as described in the antiviral assay (Test A) except that uninfected cells were used and the data were normalized to the 100% viability control (DMSO) wells on each plate.” for “death.”

For the compound `CC(C)(O)C#Cc1ccc(-c2ccc(Cl)c3c(NS(C)(=O)=O)nn(CC(F)(F)F)c23)c([C@H](Cc2cc(F)cc(F)c2)NC(=O)Cn2nc(C(F)(F)F)c3c2C(F)(F)[C@@H]2C[C@H]32)n1` [Example 1, N—((S)-1-(3-(4-chloro-3-(methylsulfonamido)-1-(2,2,2-trifluoroethyl)-1H-indazol-7-yl)-6-(3-hydroxy-3-methylbut-1-yn-1-yl)pyridin-2-yl)-2-(3,5-difluorophenyl)ethyl)-2-((3bS,4aR)-5,5-difluoro-3-(trifluoromethyl)-3b,4,4a,5-tetrahydro-1H-cyclopropa[3,4]cyclopenta[1,2-c]pyrazol-1-yl)acetamide], the response in the data set on HIV-1 (IIIb strain) was half-maximal at 0.34 nM (EC50). Also, the CC50 (usually the concentration at which the toxic effect on the cells reaches its halfway point) at 5 days in data set [1] is 3610 nM.

For `C=C(C)C#Cc1ccc(-c2ccc(Cl)c3c(NS(C)(=O)=O)nn(CC(F)(F)F)c23)c([C@H](Cc2cc(F)cc(F)c2)NC(=O)Cn2nc(C(F)(F)F)c3c2C(F)(F)[C@@H]2C[C@H]32)n1` [Example 2, N—((S)-1-(3-(4-chloro-3-(methylsulfonamido)-1-(2,2,2-trifluoroethyl)-1H-indazol-7-yl)-6-(3-methylbut-3-en-1-yn-1-yl)pyridin-2-yl)-2-(3,5-difluorophenyl)ethyl)-2-((3bS,4aR)-5,5-difluoro-3-(trifluoromethyl)-3b,4,4a,5-tetrahydro-1H-cyclopropa[3,4]cyclopenta[1,2-c]pyrazol-1-yl)acetamide], the concentration for a half-maximal effect (EC50) – broadly, the concentration needed to bring the measured effect to its halfway point – with HIV-1 (IIIb strain) came to 18 nM. Also, in data set [1], the CC50 at 5 days stood at 8740 nM.

As to `CC(C)C#Cc1ccc(-c2ccc(Cl)c3c(NS(C)(=O)=O)nn(CC(F)(F)F)c23)c([C@H](Cc2cc(F)cc(F)c2)NC(=O)Cn2nc(C(F)(F)F)c3c2C(F)(F)[C@@H]2C[C@H]32)n1` [Example 3, N—((S)-1-(3-(4-chloro-3-(methylsulfonamido)-1-(2,2,2-trifluoroethyl)-1H-indazol-7-yl)-6-(3-methylbut-1-yn-1-yl)pyridin-2-yl)-2-(3,5-difluorophenyl)ethyl)-2-((3bS,4aR)-5,5-difluoro-3-(trifluoromethyl)-3b,4,4a,5-tetrahydro-1H-cyclopropa[3,4]cyclopenta[1,2-c]pyrazol-1-yl)acetamide], in the data set on HIV-1 (IIIb strain), the EC50 stood at 21 nM. In addition, in data set [1], the half-maximal cytotoxic concentration (CC50) at 5 days was 7500 nM.

`CN(c1nn(CC(F)(F)F)c2c(-c3ccc(C#CC(C)(C)S(C)(=O)=O)nc3[C@H](Cc3cc(F)cc(F)c3)NC(=O)Cn3nc(C(F)(F)F)c4c3C(F)(F)[C@@H]3C[C@H]43)ccc(Cl)c12)S(C)(=O)=O` [Example 4, N—((S)-1-(3-(4-chloro-3-(N-methylmethylsulfonamido)-1-(2,2,2-trifluoroethyl)-1H-indazol-7-yl)-6-(3-methyl-3-(methylsulfonyl)but-1-yn-1-yl)pyridin-2-yl)-2-(3,5-difluorophenyl)ethyl)-2-((3bS,4aR)-5,5-difluoro-3-(trifluoromethyl)-3b,4,4a,5-tetrahydro-1H-cyclopropa[3,4]cyclopenta[1,2-c]pyrazol-1-yl)acetamide] displayed an EC50 with HIV-1 (IIIb strain) of 8.3 nM. In data set [1], the CC50 at 5 days is above 50000 nM.

For `CC(C)(C#Cc1ccc(-c2cccc3c(NS(C)(=O)=O)nn(CC(F)(F)F)c23)c([C@H](Cc2cc(F)cc(F)c2)NC(=O)Cn2nc(C(F)(F)F)c3c2C(F)(F)[C@@H]2C[C@H]32)n1)S(C)(=O)=O` [Example 5, 2-((3bS,4aR)-5,5-difluoro-3-(trifluoromethyl)-3b,4,4a,5-tetrahydro-1H-cyclopropa[3,4]cyclopenta[1,2-c]pyrazol-1-yl)-N—((S)-2-(3,5-difluorophenyl)-1-(6-(3-methyl-3-(methylsulfonyl)but-1-yn-1-yl)-3-(3-(methylsulfonamido)-1-(2,2,2-trifluoroethyl)-1H-indazol-7-yl)pyridin-2-yl)ethyl)acetamide], the EC50 in the data set with HIV-1 (IIIb strain) turned out to be 0.07 nM. Besides, in data set [1], the 50% cytotoxic concentration (CC50) at 5 days was determined as 9480 nM.

Take `CCN(c1nn(CC(F)(F)F)c2c(-c3ccc(C#CC(C)(C)S(C)(=O)=O)nc3[C@H](Cc3cc(F)cc(F)c3)NC(=O)Cn3nc(C(F)(F)F)c4c3C(F)(F)[C@@H]3C[C@H]43)ccc(Cl)c12)S(C)(=O)=O` [Example 6, N—((S)-1-(3-(4-chloro-3-(N-ethylmethylsulfonamido)-1-(2,2,2-trifluoroethyl)-1H-indazol-7-yl)-6-(3-methyl-3-(methylsulfonyl)but-1-yn-1-yl)pyridin-2-yl)-2-(3,5-difluorophenyl)ethyl)-2-((3bS,4aR)-5,5-difluoro-3-(trifluoromethyl)-3b,4,4a,5-tetrahydro-1H-cyclopropa[3,4]cyclopenta[1,2-c]pyrazol-1-yl)acetamide]: the midpoint of the response in the data set on HIV-1 (IIIb strain), the EC50, lay at 3.3 nM. The CC50 at 5 days in data set [1] was above 50000 nM.
